From US20190298717A1 (BOARD OF REGENTS, THE UNIVERSITY OF TEXAS SYSTEM, priority 2016, published 2019)
“Also recorded” adds a separate entry of the source.

Key:
SH-SY5Y cells = test: MTT cell viability under H2O2 induced stress; format: cell-based, human; details: 100 μM H2O2 24 h; 10 and 25 μM compound; listed as hydralazine
Protocol: To generate intracellular aldehydes, the inventors treated human neuroblastoma cell line (SH-SY5Y) with 100 μM hydrogen peroxide (H2O2) for 24 h. Carbonyl groups were quantified using 2,4-DNPH (dinitrophenylhydrazine) assay.
Cell Viability and Cytotoxicity Assay. Cell growth was analyzed using the MTT cell viability assay. Briefly, at the end of incubation/treatment, MTT reagent was diluted in culture medium and aliquoted into each well. After incubation for 2 hours, the medium was aspirated and DMSO was aliquoted into each well to disrupt the cells and dissolve the intracellular MTT dyes. Absorbance was read at 570 nm wavelength in a 96-well plate reader. Cell toxicity was detected using a LDH cell toxicity assay kit (Promega, Fitchburg Wis.). This is a coupled enzymatic assay that detects a visible color signal initially described by Nachlas et. al. The reagent contained excess concentrations of lactate and NAD+as substrates to drive the LDH reaction and produce NADH. In the presence of diaphorase, NADH drives the enzyme-catalyzed conversion of iodonitro-tetrazolium violet to a red formazan product. Briefly, DMEM medium was withdrawn from each well of the plate after treatment and briefly centrifuged to get rid of floating cells or cell debris. […] The absorbance was read at 490 nm in a 96-well plate reader. […]

thioredoxin 1 (Trx1) = details: SH-SY5Y, after 24 h and 48 h
Protocol: Trx1 reduces the cysteine residues critical for binding of Nrf2 to AREs (Hansen et al., 2004).
(§1) Western Blot Analysis. Protein expression was determined by Western blot analysis. Equal amount of protein from each sample was run in Tris-glycine SDS PAGE gel, followed by transferring to PVDF membrane. After blocking the membrane with 5% milk for 1 hour at room temperature, the membrane was incubated further for 2 hours with antibodies specific for target proteins: Nrf2, pNrf2(S40) from Novus (Littleton, Colo.); Keap1, HO-1, NQO1, GCLc, GCLm and lamin B1 from Cell Signaling (Danvers, Mass.); GAPDH from Santa Cruz (Dallas, Tex.); β-Actin from Thermo Fisher (Waltham, Mass.). The membrane was subsequently incubated with species-specific HRP-conjugated secondary antibody followed by incubation with chemiluminescence substrate and imaging. The band intensity of each of the target proteins was quantified using ImageQuant software (GE Healthcare, Sweden). Western blot analysis on worm lystaes was done similarly. […] Equal amounts of protein were run on the gel and SKN-1 protein level was detected using anti-GFP antibody.

[1] = tested on: PC12 cells expressing EGFP-HDQ74
Protocol: Transgene expression was induced with doxycycline for 8 hours, and then switched off (by removing doxycycline). […] The fraction of EGFP-positive cells expressing aggregates under different conditions were plotted as odds ratios taking Ctrl value as 1. Error bars show 95% confidence interval. […] The fraction of EGFP-positive cells with aggregates were plotted as odds ratios taking Ctrl value as 1. Error bars show 95% confidence interval. […] Rapamycin ([…]) was used as positive control. Right panel is densitometry analysis of EGFP-HDQ74 level normalized to actin. Error bars show SD. […] The fraction of EGFP-positive cells expressing aggregates were plotted as odds ratios taking Ctrl value as 1. Error bars show 95% confidence interval.
To investigate the clearance of HDQ74 (74 repeats of poly Q), the inventors used a stable doxycycline-inducible PC12 cell line expressing EGFP-tagged HDQ74 in which transgene expression were induced by doxycycline addition to the cell media and switched off by doxycycline removal. […] Rapamycin, a known autophagy inducer, was used as positive controls.

GSK3β and Tau = test: p-GSK3β (S9) and p-Tau (S396) Western blot; details: 10 μM, 24 hours
Protocol: Densitometry values were normalized against actin. […] The levels of p-Tau and total Tau were measured by Western blot analysis. […] Densitometry values were normalized to actin using Image J software. All of the western blot quantification values (shown in the right panel) are mean±SD from two technical replicates (n=2).
A known GSK3β inhibitor LiCl (lithium chloride) (10 mM) was used as a positive control [9]. After the treatment, cells were lysed and equal amounts of total lysate were resolved on SDS-PAGE for western blot analysis using phospho-GSK3β (S9) (phosphorylation at this residue reduces the GSK3β kinase activity) and pTau antibodies [12,13]. […] The inventors analyzed the level of Tau phosphorylation at S396 (FIG. 18C).

C. elegans = tested on: C. elegans
Protocol: The inventors also evaluated locomotion in worms to investigate the health of the rescued animals.
Locomotion Assays. To measure locomotion, worms were subjected to 30 seconds video recording on a Zeiss Axio Zoom. V16 fluorescence dissecting microscope equipped with Axiocam 503 and ZEN2 software. Bending rate (the number of body-bends-per-seconds) was measured by placing live animals on a plate containing M9 buffer, filming for 30 seconds and counting the number of bends. Healthiness of the worms was measured by their bending rate of young, middle aged and aged animals. […] The results were obtained from 3 individual trials.

Nrf2 pathway = details: SH-SY5Y, 10 μM, 24 h
Protocol: Cell culture in SILAC media and Lysate Preparation. SHY-SY5Y cells were grown in Dulbecco's modified Eagle's medium containing either unlabeled L-Proline, L-arginine (Argo) and L-lysine (Lyso) or L-Proline, heavy isotope-labeled L-arginine-^13C6^14N4(Arg^10) and L-lysine-^13C6-^15N2 (Lys^8) (Cambridge Isotope Laboratories, Inc.) supplemented with 10% dialyzed fetal bovine serum (Thermo Fischer, Waltham, Mass.). […] After treatment, cells were harvested by trypisinization, washed three times with cold PBS and lysed in a buffer containing 6M Urea, 2M Thio-urea, 1% SDS and 100 mM Tris/HCl, pH 8.0 with protease (Thermo Fischer, Waltham, Mass.) and phosphatase inhibitors. After incubation for 15 min at RT and sonication, the samples were clarified by centrifugation for 15 min at 20,000×g. Protein content was determined using the 660 nM protein assay kit (Thermo Fisher, Waltham, Mass.) according to the manufacturer's instructions.
Protein Digestion and Peptide Fractionation. […] The mix digest (300 μg) was then fractionated into six fractions via strong cation exchange (SCX). […]
Mass Spectrometry for SILAC. All the fractions were analyzed using a Q-Exactive HF mass spectrometer (Thermo Electron, Burlingame, Calif.) coupled to an Ultimate 3000 RSLCnano HPLC systems (Thermo Electron, Sunnyvale Calif.). […]

Nrf2 and HO-1 = tested on: Nrf2 and HO-1
Protocol: The inventors first measured the cell proliferation to evaluate the stress caused by expression of tau fibrils in aggregate-positive and negative cells (FIG. 6A). […] The inventors also measured the concentration of superoxide ions (O2-), a detrimental byproduct of oxidative phosphorylation, as an ROS representative. […] The inventors next measured expression of Nrf2 and HO-1 in the same cells (FIG. 6C). […] Aggregate-positive and -negative KD cells were treated with 200 μM H2O2 for 24 h. Cytotoxicity was measured as release of LDH.
as §1

GSH and GSSG = details: SH-SY5Y, 10 μM, 24 h
Protocol: GSH is regulated by the rate-limiting enzyme GCL consisted of GCLc and GCLm subunits. […] The inventors then used extracellular lactate dehydrogenase cytotoxicity assay to measure cell survival.
Measurement of GSH/GSSG. The intracellular GSH and GSSG content were determined using a GSH/GSSG-Glo Assay kit (Promega, Fitchburg Wis.) following the manufacturer's instructions. Briefly, after treatment, half of the cells were lysed using total lysis buffer and the other GSSG lysis buffer for 5 minutes. Luciferin generation reagents (luciferin-NT plus Glutathione-S-Transferase) were then added into each well, followed by incubation for 30 minutes. Finally, luciferin detection reagents including Ultra-Glo™ Luciferase were aliquoted into each well. After 10-minute incubation, luminescence was read in a 96-well plate reader. GSH level was calculated by subtracting GSSG level from the total, and GSH/GSSG ratio was calculated as ([Total]−[GSSG])/[GSSG].

[2] = tested on: SKN-1/Nrf2-stress response pathway; details: in vivo
Protocol: Treated and untreated populations, four biological replicates each, were then lysed, digested and analyzed by shotgun mass spectrometry for label-free quantification. […] An IPA analysis was performed using proteins with human orthologs.
Worms were lysed in 8M urea, 5% 1 M Tris-HCl pH 8.0 and 1× protease inhibitor cocktail EDTA-free (Thermo Fisher, Waltham Mass.) buffer with the aid of sonication. Lysates were centrifuged at 14000 g for 15 min at 4° C. and proteins in the supernatant were precipitated using cold acetone. Disulfide bonds were reduced and alkylated (by DTT and IAA respectively) before diluting the solution to 1.8 M with 25 mM TRIS-HCL pH 8.0. Proteins were digested overnight at 37° C. with trypsin (Promega, Fitchburg Wis.) in presence of 1 mM CaCl2. Peptides were acidified with TFA and purified using Oasis HLB plates (Waters, UK). A Dionex Ultimate 3000 UHPLC (Thermo) was coupled to an Orbitrap Fusion Lumos mass spectrometer for the separation and analysis of tryptic peptides. […]
LC-MS/MS raw data files were processed using the latest available MaxQuant software (v.1.5.3.30). […] The p-values for all the statistical analysis were calculated using a two-tailed student t-test as used for normally distributed data (we pre-processed intensities by binary logarithm).

MEF cells = details: 10 μM, 24 and 48 hours
Protocol: Cells were then subjected to confocal analysis and mRFP-GFP (yellow representing autophagosome) and mRFP (red puncta representing autophagolysosomes) were recorded; scale bar, 10 gtm. […] The co-localization of mRFP with GFP signal from tfLC3 puncta was measured using ImageJ software.
To further validate the present invention autophagic flux using mRFP-GFP tandem fluorescent-tagged LC3 (tfLC3) was measured. tfLC3 protein is one of the most widely used markers for the detection of autophagosomes and autophagolysosomes, two key structures in macroautophagy (8). tfLC3 was knocked-in to monitor autophagic flux in MEF cells based on different pH stabilities of GFP and mRFP (9). In autophagosome environment both mRFP and GFP tags of tfLC3 can fluoresce so autophagosome appear as yellow puncta (green GFP+red mRFP). […] Rapamycin was used as a positive control.

[3] = tau aggregate cells treated with 0, 10, 20 μM (FIG. 6C), comparator not stated

In the case of `NNc1nncc2ccccc12` [Hydralazine], the “cell viability under H2O2 induced cell death (MTT)” value (SH-SY5Y cells) is reported as “significantly improved; also recorded: provided protection in a dose-dependent manner”, the “increase of the amount of Trx1” value (thioredoxin 1 (Trx1)) is reported as 25% and the “poly Q aggregates (Western blot, EGFP tag)” value [1] is reported as “efficient removal of poly Q aggregates”. For the same compound, the “EGFP-HDQ74 aggregates (confocal)” value ([1]; 10 μM, 48 hours) was “significantly reduced”, the “clearance of Poly Q aggregates after 3-MA and bafilomycin” value ([1]; 5 mM 3-MA, 20 nM bafilomycin) was “abrogated” and the “EGFP-HDQ74 aggregates in ATG5 knock-down cells” value ([1]; ATG5 shRNA) was “failed to clear”. The “Tau phosphorylation at S396, compared to positive control LiCl” value (GSK3β and Tau) was “reduces the hyper-phosphorylation of Tau even more”, the “locomotor performance in skn-1(zu135) animals” value (C. elegans; 4, 8, 12 days) was “did not improve” and the “locomotor performance of young (5 days), middle age (10 days), and old (15 days) N2 animals” value (C. elegans; N2) was “significant improvement”. The “locomotor performance of pre-treated animals exposed to rotenone” value (C. elegans; N2, 100 μM, 50 μM rotenone 6 h) was “superior locomotor performance”, the “Nrf2 pathway activation, IPA Z score” value (Nrf2 pathway) was 0.156 and the “Nrf2 expression with hydralazine and rotenone compared to rotenone only” value (Nrf2 and HO-1; aggregate-positive cells, 20 μM, 1 μM rotenone, 24 h) was “higher”. The HO-1 expression increase (Nrf2 and HO-1; [3]) was roughly 25%, the “Nrf2 expression, higher” value (Nrf2 and HO-1; [3]) was 1.5 fold and the “GSH/GSSG ratio, higher” value (GSH and GSSG) was 5%. The “intracellular GSH” value (GSH and GSSG) was “increased GSH”, the “SKN-1/Nrf2-stress response pathway activation, IPA Z score” value [2] was 3.317 and the “autophagic flux (autophagosomes, autophagolysosomes)” value (MEF cells) was “induction of autophagic flux”.
